Laboratory results: patent publication US10316049B2, “Tank-binding kinase inhibitor compounds” (Gilead Sciences, Inc., priority 2015, dated 2019)
pIC50: −log10 of the molar value.

How the values were obtained:
[1] = molecular target: T1, TBK1 (Homo sapiens, UniProt Q9UHD2); experiment: TR-FRET enzymatic activity assay, TBK1; format: biochemical; note: full length recombinant TBK1 at 2.5 nM
T1 construct: TBK1 and IKKε were expressed and purified as full length recombinant proteins; made in house
T1 sequence (Q9UHD2 1-729): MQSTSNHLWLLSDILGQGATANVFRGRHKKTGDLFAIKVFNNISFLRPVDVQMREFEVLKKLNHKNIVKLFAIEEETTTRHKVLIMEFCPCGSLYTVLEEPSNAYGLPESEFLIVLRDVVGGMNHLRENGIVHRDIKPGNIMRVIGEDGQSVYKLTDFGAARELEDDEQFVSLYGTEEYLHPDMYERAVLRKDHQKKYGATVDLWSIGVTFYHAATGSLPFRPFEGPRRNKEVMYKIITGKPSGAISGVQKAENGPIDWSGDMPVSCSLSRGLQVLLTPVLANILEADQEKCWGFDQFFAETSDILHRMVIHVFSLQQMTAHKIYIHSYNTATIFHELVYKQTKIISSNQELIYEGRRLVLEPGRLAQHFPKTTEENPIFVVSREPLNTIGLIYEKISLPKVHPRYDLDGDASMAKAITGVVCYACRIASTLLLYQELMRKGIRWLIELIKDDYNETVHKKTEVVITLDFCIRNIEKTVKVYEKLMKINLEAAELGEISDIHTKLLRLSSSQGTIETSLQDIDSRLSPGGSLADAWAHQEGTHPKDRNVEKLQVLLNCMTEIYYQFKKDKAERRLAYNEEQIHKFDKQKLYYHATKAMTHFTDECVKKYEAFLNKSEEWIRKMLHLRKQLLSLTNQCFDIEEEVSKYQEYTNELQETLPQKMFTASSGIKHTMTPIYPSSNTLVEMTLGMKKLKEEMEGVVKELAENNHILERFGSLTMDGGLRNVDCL
Description: (§1) Biological Assay for TBK1 and IKKε:
(§2) Enzymatic activity of IKKε and TBK1 was measured using a homogeneous time resolved fluorescence resonance energy transfer (TR-FRET) assay that monitors enzyme dependent phosphorylation of a biotinylated serine/threonine peptide substrate. An increase in the amount of phosphorylated peptide results in an increase in TR-FRET signal. TBK1 and IKKε were expressed and purified as full length recombinant proteins. Detection reagents for the assay were purchased from Cisbio. […] After an assay reaction time of 240 minutes at 25° C., reactions were terminated with EDTA.
(§3) Amount of phosphorylated peptide was determined by the addition of 125 nM streptavidin XL665 and europium cryptate labeled anti-phospho monoclonal antibody and the resulting TR-FRET signal was recorded on an Envision plate reader (Ex: 340 nm; Em: 615/665 nm; 100 μs delay and 200 μs read window). Data was normalized based on a positive (1 μM Staurosporine) and negative (DMSO) controls and IC50 values calculated from the fit of the dose-response curves to a four-parameter equation. All IC50 values represent geometric mean values of a minimum of four determinations. These assays generally produced results within 3-fold of the reported mean.

[2] = molecular target: T2, IKKε (Homo sapiens, UniProt Q14164); experiment: TR-FRET enzymatic activity assay, IKKε; format: biochemical; settings: read-out: IKKϵ IC50; note: full length recombinant IKKε at 0.3 nM
T2 construct: TBK1 and IKKε were expressed and purified as full length recombinant proteins; made in house
T2 sequence (Q14164 1-716): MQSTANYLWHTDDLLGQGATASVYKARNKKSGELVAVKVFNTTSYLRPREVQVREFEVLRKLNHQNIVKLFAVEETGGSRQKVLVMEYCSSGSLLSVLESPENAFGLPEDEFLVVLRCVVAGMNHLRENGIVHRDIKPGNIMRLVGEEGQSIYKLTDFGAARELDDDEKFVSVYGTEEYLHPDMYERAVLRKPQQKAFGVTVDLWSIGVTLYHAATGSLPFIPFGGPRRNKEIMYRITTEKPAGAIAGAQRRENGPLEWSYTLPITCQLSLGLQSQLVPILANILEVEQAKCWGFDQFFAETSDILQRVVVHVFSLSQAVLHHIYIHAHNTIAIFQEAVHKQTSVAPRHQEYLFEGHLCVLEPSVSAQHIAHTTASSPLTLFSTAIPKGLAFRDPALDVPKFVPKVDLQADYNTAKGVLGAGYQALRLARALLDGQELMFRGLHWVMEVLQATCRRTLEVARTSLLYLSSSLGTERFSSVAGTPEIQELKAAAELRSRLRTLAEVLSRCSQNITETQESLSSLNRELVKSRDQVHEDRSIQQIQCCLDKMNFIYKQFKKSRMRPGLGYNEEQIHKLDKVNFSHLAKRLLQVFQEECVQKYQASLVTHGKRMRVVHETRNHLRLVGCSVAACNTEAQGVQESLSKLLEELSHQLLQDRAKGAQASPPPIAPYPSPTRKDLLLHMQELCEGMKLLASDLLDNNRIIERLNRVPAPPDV
Description: as §1
as §2, with “An increase in the amount of phosphorylated peptide results in an increase in TR-FRET signal.” left out
as §3, with “determinations.” for “determinations. These assays generally produced results within 3-fold of the reported mean.”

pIC50 [1] | pIC50 [2] | SMILES
8.19 | 8.00 | N#Cc1cc(-c2ccnc(NC(=O)[C@@H]3C[C@H]3c3cccnc3)c2)ccc1O[C@H]1CCN(C(=O)[C@@H](O)CO)CC1(F)F [Example 133, (1,2-Trans)-N-(4-(3-cyano-4-(((S)-1-((S)-2,3-dihydroxypropanoyl)-3,3-difluoropiperidin-4-yl)oxy)phenyl)pyridin-2-yl)-2-(pyridin-3-yl)cyclopropane-1-carboxamide]
6.13 | < 6.00 | N#Cc1cc(-c2ccnc(NC(=O)[C@@H]3C[C@@H]3C(=O)O)c2)ccc1O[C@H]1CCN(C(=O)CO)C[C@H]1F [Example 73, (1,2-cis)-2-((4-(3-cyano-4-(((3R,4S)-3-fluoro-1-(2-hydroxyacetyl)piperidin-4-yl)oxy)phenyl)pyridin-2-yl)carbamoyl)cyclopropane-1-carboxylic acid]
7.80 | 7.44 | N#Cc1cc(-c2cc(NC(=O)[C@@H]3C[C@H]3c3cccnc3)ncn2)ccc1O[C@H]1CCN(C(=O)CO)C[C@H]1F [Example 147, (1,2-Trans)-N-(6-(3-cyano-4-(((3R,4S)-3-fluoro-1-(2-hydroxyacetyl)piperidin-4-yl)oxy)phenyl)pyrimidin-4-yl)-2-(pyridin-3-yl)cyclopropane-1-carboxamide]
7.36 | 6.88 | CC1(C)C[C@@H]1C(=O)Nc1cc(-c2ccc(O[C@H]3CCN(C(=O)CO)C[C@H]3F)c(C#N)c2)ccn1 [Example 69, (S)—N-(4-(3-Cyano-4-(((3R,4S)-3-fluoro-1-(2-hydroxyacetyl)piperidin-4-yl)oxy)phenyl)pyridin-2-yl)-2,2-dimethylcyclopropane-1-carboxamide]
7.15 | 6.29 | N#Cc1cc(-c2ccnc(NC(=O)C3CC3)c2)ccc1N1CCC[C@H]1CO [Example 93, (S)—N-(4-(3-cyano-4-(2-(hydroxymethyl)pyrrolidin-1-yl)phenyl)pyridin-2-yl)cyclopropanecarboxamide]
7.91 | 7.48 | N#Cc1cc(-c2ccnc(NC(=O)[C@@H]3C[C@H]3c3cccnc3)c2)ccc1O[C@H]1CCN(C(=O)CO)C[C@H]1F (relative stereo) [Example 127]
7.77 | 7.58 | N#Cc1cc(-c2ccnc(NC(=O)C3C[C@@H]3F)c2)ccc1O[C@H]1CCN(C(=O)CO)C[C@H]1F (stereo partly drawn) [Example 57, (1,2-trans)-N-(4-(3-cyano-4-(((3R,4S)-3-fluoro-1-(2-hydroxyacetyl)piperidin-4-yl)oxy)phenyl)pyridin-2-yl)-2-fluorocyclopropane-1-carboxamide]
7.31 | 6.53 | N#Cc1cc(-c2cc(NC(=O)C3CC3)ncn2)ccc1OC1CCOCC1 [Example 6, N-(6-(3-cyano-4-((tetrahydro-2H-pyran-4-yl)oxy)phenyl)pyrimidin-4-yl)cyclopropanecarboxamide]
7.67 | 7.56 | N#Cc1cc(-c2ccnc(NC(=O)[C@@H]3C[C@H]3c3cccnc3)c2)ccc1O[C@H]1CCN(C(=O)CO)C[C@H]1F [Example 135, (1R,2R)—N-(4-(3-cyano-4-(((3R,4S)-3-fluoro-1-(2-hydroxyacetyl)piperidin-4-yl)oxy)phenyl)pyridin-2-yl)-2-(pyridin-3-yl)cyclopropane-1-carboxamide]
7.74 | 7.53 | Cn1cc(C(=O)N2CC[C@H](Oc3ccc(-c4cc(NC(=O)C5CC5)ncn4)cc3C#N)[C@H](F)C2)nn1 [Example 27, N-(6-(3-cyano-4-(((3R,4S)-3-fluoro-1-(1-methyl-1H-1,2,3-triazole-4-carbonyl)piperidin-4-yl)oxy)phenyl)pyrimidin-4-yl)cyclopropanecarboxamide]
< 6.00 | < 6.00 | Cn1cnc(C2CC2C(=O)Nc2cc(-c3ccc(O[C@H]4CCN(C(=O)CO)C[C@H]4F)c(C#N)c3)ccn2)n1 (stereo partly drawn) [Example 145, N-(4-(3-Cyano-4-(((3R,4S)-3-fluoro-1-(2-hydroxyacetyl)piperidin-4-yl)oxy)phenyl)pyridin-2-yl)-2-(1-methyl-1H-1,2,4-triazol-3-yl)cyclopropane-1-carboxamide]
8.13 | 7.96 | N#Cc1cc(-c2ccnc(NC(=O)[C@@H]3C[C@H]3c3cccnc3)c2)ccc1O[C@H]1CCN(C(=O)CO)CC1(F)F [Example 134, (1,2-Trans)-N-(4-(3-cyano-4-(((S)-3,3-difluoro-1-(2-hydroxyacetyl)piperidin-4-yl)oxy)phenyl)pyridin-2-yl)-2-(pyridin-3-yl)cyclopropane-1-carboxamide]
7.33 | 6.89 | N#Cc1cc(-c2cc(NC(=O)C3CC3)ncn2)ccc1O[C@H]1CCN(C=O)C[C@H]1F [Example 29, N-(6-(3-cyano-4-(((3R,4S)-3-fluoro-1-formylpiperidin-4-yl)oxy)phenyl)pyrimidin-4-yl)cyclopropanecarboxamide]
7.98 | 7.60 | N#Cc1cc(-c2ccnc(NC(=O)C3CC3)c2)ccc1O[C@H]1CCN(C(=O)CO)C[C@H]1F [Example 8, N-(4-(3-cyano-4-(((3R,4S)-3-fluoro-1-(2-hydroxyacetyl)piperidin-4-yl)oxy)phenyl)pyridin-2-yl)cyclopropanecarboxamide]
6.74 | 6.33 | N#Cc1cc(-c2ccnc(NC(=O)[C@@H]3C[C@H]3C#N)c2)ccc1OC1CCOCC1 (relative stereo) [Example 116, (1,2-Trans)-2-cyano-N-(4-(3-cyano-4-((tetrahydro-2H-pyran-4-yl)oxy)phenyl)pyridin-2-yl)cyclopropane-1-carboxamide]
6.52 | 6.60 | CON(C)C(=O)[C@@H]1C[C@H]1C(=O)Nc1cc(-c2ccc(OC3CCOCC3)c(C#N)c2)ccn1 (relative stereo) [Example 38]
7.73 | 7.33 | N#Cc1cc(-c2ccnc(NC(=O)C3CC3c3c[nH]cn3)c2)ccc1O[C@H]1CCN(C(=O)CO)C[C@H]1F (stereo partly drawn) [Example 81, N-(4-(3-Cyano-4-(((3R,4S)-3-fluoro-1-(2-hydroxyacetyl)piperidin-4-yl)oxy)phenyl)pyridin-2-yl)-2-(1H-imidazol-4-yl)cyclopropane-1-carboxamide]
7.80 | 7.33 | N#Cc1cc(-c2ccnc(NC(=O)[C@H]3C[C@@H]3F)c2)ccc1O[C@H]1CCN(C(=O)CO)C[C@H]1F [Example 60, (1R,2S)—N-(4-(3-cyano-4-(((3R,4S)-3-fluoro-1-(2-hydroxyacetyl)piperidin-4-yl)oxy)phenyl)pyridin-2-yl)-2-fluorocyclopropanecarboxamide]
